Assay results: PubChem BioAssay (NCI)
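Protocol summary: plate cells (96-well), add compound at 5 concentrations, incubate 48 h, interpolate endpoints linearly. GI50 = concentration required for 50% inhibition of growth. TGI denotes the concentration required for complete inhibition of growth.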

Experiments:
Assay in all cases: growth of human tumour cells (NCI), 48 h
RXF 393 renal = test system: RXF 393 renal
COLO 205 colon = test system: COLO 205 colon
CCRF-CEM leukemia = test system: CCRF-CEM leukemia
OVCAR-3 ovarian = test system: OVCAR-3 ovarian
SK-MEL-2 melanoma = test system: SK-MEL-2 melanoma
RPMI-8226 leukemia = test system: RPMI-8226 leukemia
SR leukemia = test system: SR leukemia
CAKI-1 renal = test system: CAKI-1 renal
TK-10 renal = test system: TK-10 renal
MDA-MB-231 breast = test system: MDA-MB-231 breast
SK-MEL-28 melanoma = test system: SK-MEL-28 melanoma
786-0 renal = test system: 786-0 renal
A498 renal = test system: A498 renal
SN12C renal = test system: SN12C renal
SNB-19 CNS = test system: SNB-19 CNS
KM12 colon = test system: KM12 colon
UO-31 renal = test system: UO-31 renal
HL-60(TB) leukemia = test system: HL-60(TB) leukemia
OVCAR-4 ovarian = test system: OVCAR-4 ovarian
ACHN renal = test system: ACHN renal
SNB-75 CNS = test system: SNB-75 CNS
SF-268 CNS = test system: SF-268 CNS
K-562 leukemia = test system: K-562 leukemia
HCC-2998 colon = test system: HCC-2998 colon
MCF7 breast = test system: MCF7 breast
MOLT-4 leukemia = test system: MOLT-4 leukemia
SF-295 CNS = test system: SF-295 CNS
NCI-H23 lung = test system: NCI-H23 lung
SW-620 colon = test system: SW-620 colon
UACC-257 melanoma = test system: UACC-257 melanoma
SK-MEL-5 melanoma = test system: SK-MEL-5 melanoma
HOP-92 NSCLC = test system: HOP-92 NSCLC
MALME-3M melanoma = test system: MALME-3M melanoma
BT-549 breast = test system: BT-549 breast
SF-539 CNS = test system: SF-539 CNS
DU-145 prostate = test system: DU-145 prostate
NCI/ADR-RES ovarian = test system: NCI/ADR-RES ovarian
HOP-62 NSCLC = test system: HOP-62 NSCLC
U251 CNS = test system: U251 CNS
MDA-MB-435 = test system: MDA-MB-435
SK-OV-3 ovarian = test system: SK-OV-3 ovarian
T-47D breast = test system: T-47D breast
EKVX NSCLC = test system: EKVX NSCLC
LOX IMVI melanoma = test system: LOX IMVI melanoma
HCT-116 colon = test system: HCT-116 colon
NCI-H522 lung = test system: NCI-H522 lung
HT29 colon = test system: HT29 colon
OVCAR-5 ovarian = test system: OVCAR-5 ovarian
IGROV1 ovarian = test system: IGROV1 ovarian
HS 578T breast = test system: HS 578T breast
HCT-15 colon = test system: HCT-15 colon
PC-3 prostate = test system: PC-3 prostate
OVCAR-8 ovarian = test system: OVCAR-8 ovarian
A549 NSCLC = test system: A549 NSCLC
NCI-H460 lung = test system: NCI-H460 lung
UACC-62 melanoma = test system: UACC-62 melanoma

O=C(OCc1nc2nc(Cl)nc(N3CCOCC3)c2[nH]1)n1ccnc1
GI50 (RXF 393 renal): 1610 nM | TGI (RXF 393 renal): 3060 nM | GI50 (COLO 205 colon): 1650 nM | TGI (COLO 205 colon): 3840 nM | GI50 (CCRF-CEM leukemia): 1170 nM | TGI (CCRF-CEM leukemia): 6920 nM | GI50 (OVCAR-3 ovarian): 1290 nM | TGI (OVCAR-3 ovarian): 2790 nM | GI50 (SK-MEL-2 melanoma): 1950 nM | TGI (SK-MEL-2 melanoma): 4510 nM | GI50 (RPMI-8226 leukemia): 582 nM | TGI (RPMI-8226 leukemia): 3320 nM | GI50 (SR leukemia): 1090 nM | TGI (SR leukemia): 5090 nM | GI50 (CAKI-1 renal): 1210 nM | TGI (CAKI-1 renal): 2840 nM | GI50 (TK-10 renal): 1940 nM | TGI (TK-10 renal): 4050 nM | GI50 (MDA-MB-231 breast): 1630 nM | TGI (MDA-MB-231 breast): 3380 nM | GI50 (SK-MEL-28 melanoma): 1740 nM | TGI (SK-MEL-28 melanoma): 3240 nM | GI50 (786-0 renal): 1840 nM | TGI (786-0 renal): 3980 nM | GI50 (A498 renal): 2900 nM | TGI (A498 renal): 9830 nM | GI50 (SN12C renal): 1380 nM | TGI (SN12C renal): 2760 nM | GI50 (SNB-19 CNS): 2420 nM | TGI (SNB-19 CNS): 6460 nM | GI50 (KM12 colon): 1880 nM | TGI (KM12 colon): 4720 nM | GI50 (UO-31 renal): 1190 nM | TGI (UO-31 renal): 2420 nM | GI50 (HL-60(TB) leukemia): 1510 nM | TGI (HL-60(TB) leukemia): 4550 nM | GI50 (OVCAR-4 ovarian): 1630 nM | TGI (OVCAR-4 ovarian): 3380 nM | GI50 (ACHN renal): 1120 nM | TGI (ACHN renal): 2320 nM | GI50 (SNB-75 CNS): 1040 nM | TGI (SNB-75 CNS): 3490 nM | GI50 (SF-268 CNS): 1740 nM | TGI (SF-268 CNS): 3600 nM | GI50 (K-562 leukemia): 1680 nM | TGI (K-562 leukemia): 8100 nM | GI50 (HCC-2998 colon): 2220 nM | TGI (HCC-2998 colon): 4160 nM | GI50 (MCF7 breast): 1840 nM | TGI (MCF7 breast): 4910 nM | GI50 (MOLT-4 leukemia): 2290 nM | TGI (MOLT-4 leukemia): 6470 nM | GI50 (SF-295 CNS): 10500 nM | TGI (SF-295 CNS): 22200 nM | GI50 (NCI-H23 lung): 2410 nM | TGI (NCI-H23 lung): 5690 nM | GI50 (SW-620 colon): 1500 nM | TGI (SW-620 colon): 3320 nM | GI50 (UACC-257 melanoma): 1900 nM | TGI (UACC-257 melanoma): 3940 nM | GI50 (SK-MEL-5 melanoma): 1830 nM | TGI (SK-MEL-5 melanoma): 3350 nM | GI50 (HOP-92 NSCLC): 1170 nM | TGI (HOP-92 NSCLC): 3150 nM | GI50 (MALME-3M melanoma): 1720 nM | TGI (MALME-3M melanoma): 3220 nM | GI50 (BT-549 breast): 2490 nM | TGI (BT-549 breast): 9490 nM | GI50 (SF-539 CNS): 1480 nM | TGI (SF-539 CNS): 2820 nM | GI50 (DU-145 prostate): 1590 nM | TGI (DU-145 prostate): 3180 nM | GI50 (NCI/ADR-RES ovarian): 2570 nM | TGI (NCI/ADR-RES ovarian): 8840 nM | GI50 (HOP-62 NSCLC): 1640 nM | TGI (HOP-62 NSCLC): 4780 nM | GI50 (U251 CNS): 1960 nM | TGI (U251 CNS): 4320 nM | GI50 (MDA-MB-435): 1320 nM | TGI (MDA-MB-435): 2750 nM | GI50 (SK-OV-3 ovarian): 3400 nM | TGI (SK-OV-3 ovarian): 14300 nM | GI50 (T-47D breast): 1880 nM | TGI (T-47D breast): 4480 nM | GI50 (EKVX NSCLC): 2040 nM | TGI (EKVX NSCLC): 4660 nM | GI50 (LOX IMVI melanoma): 720 nM | TGI (LOX IMVI melanoma): 2170 nM | GI50 (HCT-116 colon): 650 nM | TGI (HCT-116 colon): 3290 nM | GI50 (NCI-H522 lung): 1710 nM | TGI (NCI-H522 lung): 4380 nM | GI50 (HT29 colon): 1590 nM | TGI (HT29 colon): 4330 nM | GI50 (OVCAR-5 ovarian): 1520 nM | TGI (OVCAR-5 ovarian): 3070 nM | GI50 (IGROV1 ovarian): 1320 nM | TGI (IGROV1 ovarian): 2640 nM | GI50 (HS 578T breast): 1960 nM | TGI (HS 578T breast): 5370 nM | GI50 (HCT-15 colon): 2060 nM | TGI (HCT-15 colon): 6450 nM | GI50 (PC-3 prostate): 1690 nM | TGI (PC-3 prostate): 3650 nM | GI50 (OVCAR-8 ovarian): 2560 nM | TGI (OVCAR-8 ovarian): 11000 nM | GI50 (A549 NSCLC): 3240 nM | TGI (A549 NSCLC): 12900 nM | GI50 (NCI-H460 lung): 1860 nM | TGI (NCI-H460 lung): 4020 nM | GI50 (UACC-62 melanoma): 1550 nM | TGI (UACC-62 melanoma): 2940 nM
